The source of these data is patent US5684151A, “1-arylsulphonyl, arylcarbonyl and 1-arylphosphonyl-3-phenyl-1,4,5,6-tetrahydropyridazines” (priority 1995, dated 1997).

The IC50 is the concentration that gives 50% inhibition.

Assay [1] addresses T1, progestin receptor from rabbit uterus (Oryctolagus cuniculus, UniProt P06186).
T1 construct: Cytosolic progestin receptor were obtained by mixing rabbit uterine tissue with a Tris buffer; from tissue; host or cells: rabbit uterus cytosol
The experiment in a line: Progestin receptor binding (3H-R5020 displacement). To be noted: rabbit uterine cytosol, 4° C., 18 h, read-out: IC50: Binding affinity for the progestin receptor from rabbit uterus. As for the experimental part:
A progestin initiates a biological response by first binding to a progestin receptor. Affinity for progestin receptors was determined by measuring the ability of compounds to displace a progestin radioligand from those receptors in vitro. Cytosolic progestin receptor were obtained by mixing rabbit uterine tissue with a Tris buffer [0.1M Tris-Hcl, 1 mM Na2 EDTA, 1 mM dithiothreotol, 1 mM sodium molybdate, 1% glycerol, pH 7.4]. The tissue/buffer mixture was homogenized under ice-cold conditions. The homogenate was then centrifuged and the supernatant (cytosol preparation) was decanted and stored at -70° C. and thawed prior to use. The competitive binding assay was performed by mixing ^3 H-R5020, a progestin radioligand, with cytosol preparation and various concentrations of test compounds (prepared in DMSO with a final 5% DMSO concentration). This mixture was then incubated at 4° C. for about 18 hours. Non-specific binding was determined using an unlabelled ligand in excess. After the incubation period, the radioligand bound to receptor was separated from free radioligand using dextran-coated charcoal. The amount of bound radioligand was then determined by liquid scintillation counting. The data were expressed as the concentration of test compound that displaced 50% of the radioligand from the receptor (IC50)
Aspects of the application used in this procedure are described in the following: J. L. McGuire et al., Biochemistry 13, 319, 1974.

The subject of assay [2] is mouse (MC3T3-E1) and human (TE-85) osteoblast-line cells. It is filed as cell-based. The source says: Compounds of the present invention have utility to treat osteoporosis through enhancement of bone calcification rather than traditional approaches which generally involve inhibition of bone degeneration or resorption. The compounds of the present invention have been evaluated as stimulators of proliferation of osteoblast cell and chick calivaria bone organ culture which is predictive of enhancement of bone mass and bone formation in vivo.
The action of select compounds to stimulate osteoblast growth was measured in culture by estimating the rate of DNA synthesis by the rate of ^3 H-thymidine incorporation into DNA. Only cells undergoing mitosis synthesized new DNA and thus only these cells incorporated the radiolabelled DNA-specific thymidine. The stimulation of the proliferation and differentiation of bone-forming cells, osteoblasts, was a prerequisite for an increase in bone formation and bone mass. The ability of agents to increase osteoblast proliferation and differentiation can be predicted by their action on cultured osteoblast-line cells in vitro. In this test, mouse (MC3T3-E1) and human (TE-85) osteoblast-line cells (American Type Tissue Culture Collection, #CRL 1543, Rockville, Md. cloned by Sudo et al., Koriyama, Japan) were cultured in vitro and the effect of various agents were tested on osteoblast cell proliferation. Cells were harvested from large culture flasks where they were allowed to grow to near confluency using trypsin. The cells were plated into 96 well culture plates, 1600 cells in 100 μL per well in Dulbencos Modified Eagle's Medium (DMEM) with 25 mM HEPES buffer, L-glutamine (584 mg/L); D-glucose (4.5 g/L) supplemented with fetal bovine sera (10%); penicillin (100 units/mL) and streptomycin (100 mcg/mL); sodium pyruvate (10 μM final concentration). The cells were allowed to plate overnight in DMEM containing 10% fetal bovine sera at 37° C. in an atmosphere of 5% CO2/95% air. Following their placement into 96 well culture plates all the osteoblast-line cells, either the MC3T3-E1 or the TE-85 cell lines, were allowed an additional 24 hours preincubation period in media containing only 0.1% fetal bovine sera.
Twenty hours later, a 20 μL aliquot of media containing 0.4 μCi of ^3 H-thymidine was added to each culture well. The cells were then incubated an additional 4 hours. The incubation was terminated by aspirating the media and washing with HBSS (Hank's Balanced Salt Solution). The cells were then treated with 100 μL of 0.5% trypsin and 5.3 mM EDTA for 30 minutes at room temperature. The cells were then aspirated onto glass fiber filter and washed with water. The radioactivity on the filters was quantified by liquid scintillation spectroscopy. The rate of ^3 H-thymidine incorporation into DNA was then utilized as an index of cell proliferation. The results are shown in Table 13 expressed as % times control where the control is 100%. […]

Molecules are shown by their SMILES. Read-outs that look alike come from different tables or passages of the source.

T1 sequence (P06186 whole entry): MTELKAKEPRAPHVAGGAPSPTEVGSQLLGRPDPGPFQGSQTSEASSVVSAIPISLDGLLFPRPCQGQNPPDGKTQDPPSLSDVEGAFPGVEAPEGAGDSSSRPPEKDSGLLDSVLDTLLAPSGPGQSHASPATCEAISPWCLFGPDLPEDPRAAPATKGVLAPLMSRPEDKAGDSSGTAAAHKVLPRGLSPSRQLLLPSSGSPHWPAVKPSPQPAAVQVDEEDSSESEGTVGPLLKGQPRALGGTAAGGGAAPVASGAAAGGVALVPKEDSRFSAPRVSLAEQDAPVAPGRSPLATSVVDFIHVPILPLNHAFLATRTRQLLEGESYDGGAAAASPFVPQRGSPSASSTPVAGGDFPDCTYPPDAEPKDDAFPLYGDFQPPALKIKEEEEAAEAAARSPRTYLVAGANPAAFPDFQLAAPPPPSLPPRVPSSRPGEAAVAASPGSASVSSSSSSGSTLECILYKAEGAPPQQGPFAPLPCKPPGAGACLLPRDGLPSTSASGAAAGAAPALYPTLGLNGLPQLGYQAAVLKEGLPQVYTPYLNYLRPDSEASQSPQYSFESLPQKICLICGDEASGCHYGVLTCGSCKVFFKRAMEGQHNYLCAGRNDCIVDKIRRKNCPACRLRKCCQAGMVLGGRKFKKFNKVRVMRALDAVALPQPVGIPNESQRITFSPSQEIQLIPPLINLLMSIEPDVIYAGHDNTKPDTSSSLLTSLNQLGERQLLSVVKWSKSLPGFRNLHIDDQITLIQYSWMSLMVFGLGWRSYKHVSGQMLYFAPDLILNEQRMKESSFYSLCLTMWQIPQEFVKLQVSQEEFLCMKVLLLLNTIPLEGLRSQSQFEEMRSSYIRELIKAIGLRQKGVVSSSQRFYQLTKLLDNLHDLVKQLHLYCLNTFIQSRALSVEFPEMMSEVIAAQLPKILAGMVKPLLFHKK

Regarding `O=S(=O)(c1ccc(F)cc1)N1CCCC(c2ccc(Cl)cc2)=N1` [Compound 17], in assay [1], the 50% inhibitory concentration (IC50) came out at 0.048 µM.
On the same count and under the same terms, the result for `CCCCc1ccc(S(=O)(=O)N2CCCC(c3ccc(Cl)c(Cl)c3)=N2)cc1` [Compound 108] reads 0.00335 µM; that for `O=S(=O)(c1cc(Cl)ccc1Cl)N1CCCC(c2cccc(Cl)c2)=N1` [Compound 91], 0.00239 µM.
Still for that read-out and setting: the result for `O=S(=O)(/C=C/c1ccccc1)N1CCCC(c2ccc(Cl)c(C(F)(F)F)c2)=N1` [Compound 276] reads 0.0539 µM; that for `O=S(=O)(c1ccc(Cl)c(Cl)c1)N1CCCC(c2ccccc2)=N1` [Compound 60], 0.191 µM.
`CC1CC(c2ccccc2)=NN(S(=O)(=O)c2ccc(Br)cc2)C1` (stereo not shown) [Compound 142]: the IC50 in assay [1] worked out at 1.62 µM.
`CCCCc1ccc(C2=NN(C(=O)c3ccc(Cl)c(Cl)c3)CCC2)cc1` [Compound 231]: the “Osteoblast Cell Proliferation, 3H-thymidine incorporation vs control (100%)” value (shortened to “Osteoblast Cell Proliferation … (100%)”) in assay [2] (10^-7) is 115%; in assay [2] (10^-8), 103%; in assay [2] (10^-9), 145%; in assay [2] (10^-10), 133%.
In the case of `O=C(c1cc(Cl)cc(Cl)c1)N1CCCC(c2ccccc2)=N1` [Compound 232], the “Osteoblast Cell Proliferation … (100%)” value in assay [2] (10^-7) was 110%; in assay [2] (10^-8), 115%; in assay [2] (10^-9), 115%; in assay [2] (10^-10) it was 121%.
Take `CC1CC(c2ccccc2)=NN(C(=S)c2ccc(Cl)c(Cl)c2)C1` (racemic) [Compound 248, (R,S)-1-(3,4-dichlorothiobenzoyl)-5-methyl-3-phenyl-1,4,5,6-tetrahydropyridazine]: the “Osteoblast Cell Proliferation … (100%)” value in assay [2] (10^-7) worked out at 142%; in assay [2] (10^-8) it was 130%; in assay [2] (10^-9), 140%; in assay [2] (10^-10) it was 149%.
Taken in the same sequence, the figures for `CC1(C)CC(c2ccccc2)=NN(C(=O)c2ccc(Cl)c(Cl)c2)C1` [Compound 234] were 95%, 84%, 84% and 111%.
Taken in the same sequence, the figures for `S=C(c1cc(Cl)cc(Cl)c1)N1CCCC(c2ccc(Cl)c(Cl)c2)=N1` [Compound 244] were 119%, 134%, 129% and 144%.
On to `CCCCc1ccc(C2=NN(P(=O)(OC)c3ccccc3)CCC2)cc1` (stereo not shown) [Compound 251], for which the “Osteoblast Cell Proliferation … (100%)” value in assay [2] (10^-6) was determined as 109%; in assay [2] (10^-7) it was 104%; in assay [2] (10^-8) it was 111%; in assay [2] (10^-9), 91%; in assay [2] (10^-10), 111%.
For the compound `O=C(c1ccc(F)c(Br)c1)N1CCCC(c2ccccc2)=N1` [Compound 229], the “Osteoblast Cell Proliferation … (100%)” value in assay [2] (10^-7) is on record as 104%; in assay [2] (10^-8), 86%; in assay [2] (10^-9) it was 99%; in assay [2] (10^-10), 114%.
Consider `CS(=O)(=O)c1ccc(S(=O)(=O)N2CCCC(c3ccc(Cl)c(Cl)c3)=N2)cc1` [Compound 275, 3-(3,4-Dichlorophenyl)-1-(4-methylsulfonylbenzenesulfonyl)-1,4,5,6-tetrahydropyridazine], for which the “Osteoblast Cell Proliferation … (100%)” value in assay [2] (10^-7) was 145%; in assay [2] (10^-8), 153%; in assay [2] (10^-9), 128%; in assay [2] (10^-10), 136%.
For `O=S(=O)(/C=C/c1ccc(-c2ccccc2)cc1)N1CCCC(c2ccc(Cl)c(Cl)c2)=N1` [Compound 168], the “Osteoblast Cell Proliferation … (100%)” value in assay [2] (10^-6) was 67%; in assay [2] (10^-7) it was 82%; in assay [2] (10^-8), 82%; in assay [2] (10^-9) it was 76%; in assay [2] (10^-10), 109%.
With `Fc1ccc(C(=S)N2CCCC(c3ccc(Cl)c(Cl)c3)=N2)cc1F` [Compound 236, 3-(3,4-Dichlorophenyl)-1-(3,4-difluorothiobenzoyl)-1,4,5,6-tetrahydropyridazine], the “Osteoblast Cell Proliferation … (100%)” value in assay [2] (10^-7) turned out to be 109%; in assay [2] (10^-8) it was 102%; in assay [2] (10^-9) it was 106%; in assay [2] (10^-10), 115%.
For `O=S(=O)(c1cccc2ccccc12)N1CCCC(c2ccc(Cl)cc2)=N1` [Compound 44], the “Osteoblast Cell Proliferation … (100%)” value in assay [2] (10^-6) is listed as 86%; in assay [2] (10^-7) it was 107%; in assay [2] (10^-8), 105%; in assay [2] (10^-9), 95%; in assay [2] (10^-10), 87%.
For the compound `CC1CC(c2ccccc2)=NN(C(=O)c2ccc(Cl)c(Cl)c2)C1` (racemic) [Compound 233, (R,S)-1-(3,4-dichlorobenzoyl)-5-methyl-3-phenyl-1,4,5,6-tetrahydropyridazine], the “Osteoblast Cell Proliferation … (100%)” value is 130% in assay [2] (10^-7), 132% in assay [2] (10^-8), 130% in assay [2] (10^-9) and 138% in assay [2] (10^-10).
For `Nc1c(Br)cc(C2=NN(C(=O)c3ccc(Cl)c(Cl)c3)CCC2)cc1Br` [Compound 265, (3-4-Amino-3,5-dibromophenyl)-1-(3,4-dichlorobenzoyl)-1,4,5,6-tetrahydropyridazine], the “Osteoblast Cell Proliferation … (100%)” value in assay [2] (10^-7) is 110%; in assay [2] (10^-8), 112%; in assay [2] (10^-9) it was 112%; in assay [2] (10^-10), 115%.
Turning to `S=C(c1ccc(Cl)c(Cl)c1)N1CCCC(c2ccc(Cl)c(Cl)c2)=N1` [Compound 243], the “Osteoblast Cell Proliferation … (100%)” value worked out at 118% in assay [2] (10^-7), 92% in assay [2] (10^-8), 96% in assay [2] (10^-9) and 89% in assay [2] (10^-10).
As for `Cc1ccc(/C=C/S(=O)(=O)N2CCCC(c3ccc(Cl)c(Cl)c3)=N2)cc1` [Compound 169], the “Osteoblast Cell Proliferation … (100%)” value in assay [2] (10^-6) was 128%; in assay [2] (10^-7), 131%; in assay [2] (10^-8), 133%; in assay [2] (10^-9) it was 134%; in assay [2] (10^-10), 195%.
